Data from publication PMC8525948 (Drug Delivery, 2021).
Where a name gives a salt, the structure may show the parent alone.

Tests used:
[1] = Droplet size, PDI and appearance of nanoemulsions (LBSNENAs) after self-nanoemulsifying; format: physicochemical; conditions: PC90C10P0 loaded with the named substance at its solubility; 25 °C
Procedure: After self-nanoemulsifying LBSNENPs were placed in double-distilled (DD) water, the average particle size and size distribution of the so-obtained LBSNENAs were measured at a scattering angle of 90° with an N5 submicron particle size analyzer (Beckman Coulter, Brea, CA) at 25 °C, and the intensity autocorrelation of the sample was in a range of 5 × 10^4–10^6. The average diameter and polydispersity index (PDI) of three measurements were reported. […] Each data point is the mean of at least three individual trials.

[2] = In vitro release, USP dissolution apparatus 2, simulated gastric fluid pH 1.2; format: physicochemical; conditions: for Dissolution from PC90C10P0 in simulated gastric acid solution: within 0.5 h / plateau at 0.5 h, CPT11 40 mg/g, inhibitors 80 mg/g
Procedure: The temperature of the dissolution medium was maintained at 37 ± 0.5 °C. Aliquots of 5 mL of sample were withdrawn for the assay at predetermined time intervals and replaced with the same volume of fresh medium.

[3] = Solubility (loading amount) in 1 g of optimal LBSNENP PC90C10P0
[4] = In vivo pharmacokinetic study in rabbits: plasma CPT11
Procedure: Plasma samples were stored at −80 °C before the high-performance liquid chromatographic (HPLC) analysis as described below. PK parameters are presented as the mean and standard deviation (SD) from individual rabbits in each group and were estimated through a noncompartmental analysis. The terminal elimination rate constant (Ke) was estimated from the slope of the log-linear phase of declining plasma concentrations of an […] versus time graph. The half-life (T1/2) was calculated using the following equation: T1/2 = ln2/Ke. The area under the concentration-time curve from beginning to the last time point (AUC0→last) was calculated using the trapezoidal method. Summation of AUC0→last and the concentration at the last measured point divided by Ke yielded AUC0→∞. Clearance (CL) was calculated by dividing the dose by AUC0→∞, and the volume of distribution (V) was determined by dividing CL by Ke. The absolute bioavailability (FAB) and relative bioavailability (FRB) were respectively calculated according to Equations (1) and (2), respectively (1) FAB=[AUC]poDIV/[AUC]IVDpo×100 where [AUC]po and [AUC]IV are the area under the plasma concentration curves (AUCs) after oral and intravenous administration. DIV and Dpo are the doses after […] administration, respectively. (2) FRB=[AUC]ADB/[AUC]BDA×100
where AUC for a LBSNENPs formulation [AUC]A and the AUC for the same drug in solution [AUC]B after oral administration were compared. DB and DA are the doses for solution and LBSNENPs formulation, respectively.
After centrifugation at 13,000 rpm for 30 min at 4 °C, 1.2 mL of ethyl acetate was collected, and then subjected to evaporation under N2 gas at 50 °C. The mobile phase (200 μL) was added to reconstitute the dried residual, vortexed for 5 min, and then centrifuged at 10^4 rpm and 25 °C for 3 min. The supernatant (180 µL) was collected, and 50 µL was injected into the HPLC system for analysis.

[5] = background statement, no reference given; cited from earlier work
[6] = New Zealand white, rabbit, in vivo, iv, 4 mg/kg

Compound	Mean droplet size of nanoemulsion after self-nanoemulsifying [1]	PDI of nanoemulsion after self-nanoemulsifying [1]	Dissolution from PC90C10P0 in simulated gastric acid solution with 1% Tween 80 ([2]; plateau at 0.5 h, 80 mg/g)	Dissolution from PC90C10P0 in simulated gastric acid solution [2]	Solubility (loading amount) in 1 g of PC90C10P0 [3]	FAB of CPT11 ([4]; I.V. (4 mg/kg), reference group)	AUC(0-inf) [4, 6]	AUC(0-t) [4, 6]	Cmax [4, 6]	Times more active than CPT11 [5]
O=c1cc(-c2ccccc2)oc2cc(O)c(O)c(O)c12 [BA, Baicalein]	171.0 ± 6.52 nm	0.863 ± 0.087	not observed	appeared to be over saturated	80 mg/g					
CCc1c2c(nc3ccc(OC(=O)N4CCC(N5CCCCC5)CC4)cc13)-c1cc3c(c(=O)n1C2)COC(=O)[C@]3(O)CC [CPT11, Irinotecan hydrochloride]	157.3 ± 2.08 nm	0.665 ± 0.020		100%	40 mg/g	100%	287 ± 104 ng·h/mL	287 ± 104 ng·h/mL	341 ± 98.6 ng/mL	
CC1(C)[C@@H](O[C@H]2O[C@H](C(=O)O)[C@@H](O)[C@H](O)[C@H]2O[C@@H]2O[C@H](C(=O)O)[C@@H](O)[C@H](O)[C@H]2O)CC[C@]2(C)[C@H]3C(=O)C=C4[C@@H]5C[C@@](C)(C(=O)O)CC[C@]5(C)CC[C@@]4(C)[C@]3(C)CC[C@@H]12 [GA, glycyrrhizic acid]	102.1 ± 0.67 nm	0.602 ± 0.031		100%	200 mg/g					
CC1(C)[C@@H](O)CC[C@]2(C)[C@H]3C(=O)C=C4[C@@H]5C[C@@](C)(C(=O)O)CC[C@]5(C)CC[C@@]4(C)[C@]3(C)CC[C@@H]12 [GLA, glycyrrhetinic acid]	143.5 ± 0.04 nm	0.559 ± 0.063		100%	80 mg/g					
CCc1c2c(nc3ccc(O)cc13)-c1cc3c(c(=O)n1C2)COC(=O)[C@]3(O)CC [SN-38]										100–1000 times
silymarin [SM]					130 mg/g					
